Measured values as given in US9730938B2, “Bruton's tyrosine kinase inhibitor combinations and uses thereof” (Pharmacyclics LLC, priority 2014, dated 2017).

Assays:
Format in all cases: cell-based
[1] = tested on: OCI-LY-3; assay: Combined drug treatment cell viability, CellTiter-Glo assay (Example 2); settings: 3 days
[2] = tested on: TMD8; assay: as above; settings: 3 days
[3] = tested on: OCI-LY-10; assay: as above; settings: 3 days
[4] = tested on: SU-DHL-2; assay: as above; settings: 3 days
[5] = tested on: HBL-1; assay: as above; settings: 3 days
[6] = tested on: U2932; assay: as above; settings: 3 days
[7] = tested on: Jeko cells; assay: 3-day CellTiter Glow combination study in Jeko cells with wild-type or mutant CARD11; settings: FIG. 6
Procedure: Jeko cells, a MCL cell line, and OCI-Ly3, a DLBCL cell line, were used for this experiment.
In summary, 10,000 cells were plated into 96-well plates and treated with different concentrations of inhibitors. 3 days later, CellTiter Glow reagent was added into the wells and the luminescent signals were measured.

[8] = ibrutinib 0 nM, JAK3 10 μM / MCL-1 3 μM alone
[9] = ibrutinib 0.0512 nM, JAK3 10 μM / MCL-1 3 μM / medium alone
[10] = ibrutinib 0.256 nM, JAK3 10 μM / MCL-1 3 μM / medium alone
[11] = ibrutinib 1.28 nM, JAK3 10 μM / MCL-1 3 μM / medium alone
[12] = ibrutinib 6.4 nM, JAK3 10 μM / MCL-1 3 μM / medium alone
[13] = ibrutinib 32 nM, JAK3 10 μM / MCL-1 3 μM / medium alone
[14] = ibrutinib 160 nM, JAK3 10 μM / MCL-1 3 μM / medium alone
[15] = ibrutinib 800 nM, JAK3 10 μM / MCL-1 3 μM / medium alone
[16] = ibrutinib 20000 nM, JAK3 10 μM / MCL-1 3 μM / medium alone
[17] = ibrutinib 40000 nM, JAK3 10 μM / MCL-1 3 μM / medium alone

## C[C@@H]1CCN(C(=O)CC#N)C[C@@H]1N(C)c1ncnc2[nH]ccc12 [tofacitinib]
[1]; [8]
  luminescence (CellTiter-Glo): 60068.93
[1]; [9]
  luminescence (CellTiter-Glo): 52005.22
[1]; [10]
  luminescence (CellTiter-Glo): 56590.84
[1]; [11]
  luminescence (CellTiter-Glo): 49371.84
[1]; [12]
  luminescence (CellTiter-Glo): 52737.31
[1]; [13]
  luminescence (CellTiter-Glo): 47894.25
[1]; [14]
  luminescence (CellTiter-Glo): 42659.67
[1]; [15]
  luminescence (CellTiter-Glo): 54193.44
[1]; [16]
  luminescence (CellTiter-Glo): 59782.00
[1]; [17]
  luminescence (CellTiter-Glo): 45217.97
[2]; [8]
  luminescence (CellTiter-Glo): 42085.03
[2]; [9]
  luminescence (CellTiter-Glo): 22758.56
[2]; [10]
  luminescence (CellTiter-Glo): 22844.02
[2]; [11]
  luminescence (CellTiter-Glo): 23722.74
[2]; [12]
  luminescence (CellTiter-Glo): 22806.63
[2]; [13]
  luminescence (CellTiter-Glo): 23770.82
[2]; [14]
  luminescence (CellTiter-Glo): 23674.67
[2]; [15]
  luminescence (CellTiter-Glo): 21620.76
[2]; [16]
  luminescence (CellTiter-Glo): 6463.53
[2]; [17]
  luminescence (CellTiter-Glo): 19962.15
[3]; [8]
  luminescence (CellTiter-Glo): 55820.26
[3]; [9]
  luminescence (CellTiter-Glo): 51855.78
[3]; [10]
  luminescence (CellTiter-Glo): 42984.83
[3]; [11]
  luminescence (CellTiter-Glo): 35330.40
[3]; [12]
  luminescence (CellTiter-Glo): 19547.86
[3]; [13]
  luminescence (CellTiter-Glo): 13432.93
[3]; [14]
  luminescence (CellTiter-Glo): 13583.65
[3]; [15]
  luminescence (CellTiter-Glo): 14159.61
[3]; [16]
  luminescence (CellTiter-Glo): 14383.00
[3]; [17]
  luminescence (CellTiter-Glo): 14751.73
[4]; [8]
  luminescence (CellTiter-Glo): 133588.4
[4]; [9]
  luminescence (CellTiter-Glo): 154568.4
[4]; [10]
  luminescence (CellTiter-Glo): 167037.0
[4]; [11]
  luminescence (CellTiter-Glo): 171896.5
[4]; [12]
  luminescence (CellTiter-Glo): 165146.8
[4]; [13]
  luminescence (CellTiter-Glo): 173773.3
[4]; [14]
  luminescence (CellTiter-Glo): 165414.5
[4]; [15]
  luminescence (CellTiter-Glo): 167444.0
[4]; [16]
  luminescence (CellTiter-Glo): 2706.8
[4]; [17]
  luminescence (CellTiter-Glo): 164389.1
[5]; [8]
  luminescence (CellTiter-Glo): 78088.40
[5]; [9]
  luminescence (CellTiter-Glo): 48007.16
[5]; [10]
  luminescence (CellTiter-Glo): 49532.94
[5]; [11]
  luminescence (CellTiter-Glo): 56756.95
[5]; [12]
  luminescence (CellTiter-Glo): 46403.61
[5]; [13]
  luminescence (CellTiter-Glo): 47226.84
[5]; [14]
  luminescence (CellTiter-Glo): 41745.82
[5]; [15]
  luminescence (CellTiter-Glo): 37551.94
[5]; [16]
  luminescence (CellTiter-Glo): 17614.87
[5]; [17]
  luminescence (CellTiter-Glo): 39380.73
[6]; [8]
  luminescence (CellTiter-Glo): 74370.91
[6]; [9]
  luminescence (CellTiter-Glo): 61632.23
[6]; [10]
  luminescence (CellTiter-Glo): 61314.09
[6]; [11]
  luminescence (CellTiter-Glo): 61987.79
[6]; [12]
  luminescence (CellTiter-Glo): 58424.16
[6]; [13]
  luminescence (CellTiter-Glo): 57921.57
[6]; [14]
  luminescence (CellTiter-Glo): 55595.72
[6]; [15]
  luminescence (CellTiter-Glo): 54213.58
[6]; [16]
  luminescence (CellTiter-Glo): 24327.81
[6]; [17]
  luminescence (CellTiter-Glo): 54924.70

## Cc1csc(=NC2CCCCC2)n1/N=C/c1ccc(O)c(O)c1O [MIM1]
[1]; [8]
  luminescence (CellTiter-Glo): 80237.62
[1]; [9]
  luminescence (CellTiter-Glo): 76311.68
[1]; [10]
  luminescence (CellTiter-Glo): 80052.59
[1]; [11]
  luminescence (CellTiter-Glo): 80436.06
[1]; [12]
  luminescence (CellTiter-Glo): 73884.80
[1]; [13]
  luminescence (CellTiter-Glo): 75378.47
[1]; [14]
  luminescence (CellTiter-Glo): 65609.22
[1]; [15]
  luminescence (CellTiter-Glo): 74844.82
[1]; [16]
  luminescence (CellTiter-Glo): 75182.71
[1]; [17]
  luminescence (CellTiter-Glo): 74901.14
[2]; [8]
  luminescence (CellTiter-Glo): 36019.47
[2]; [9]
  luminescence (CellTiter-Glo): 19059.39
[2]; [10]
  luminescence (CellTiter-Glo): 18570.62
[2]; [11]
  luminescence (CellTiter-Glo): 18591.98
[2]; [12]
  luminescence (CellTiter-Glo): 19112.81
[2]; [13]
  luminescence (CellTiter-Glo): 19032.68
[2]; [14]
  luminescence (CellTiter-Glo): 19452.01
[2]; [15]
  luminescence (CellTiter-Glo): 18063.15
[2]; [16]
  luminescence (CellTiter-Glo): 4767.52
[2]; [17]
  luminescence (CellTiter-Glo): 15624.64
[3]; [8]
  luminescence (CellTiter-Glo): 43143.62
[3]; [9]
  luminescence (CellTiter-Glo): 33524.45
[3]; [10]
  luminescence (CellTiter-Glo): 26007.29
[3]; [11]
  luminescence (CellTiter-Glo): 18751.19
[3]; [12]
  luminescence (CellTiter-Glo): 11024.10
[3]; [13]
  luminescence (CellTiter-Glo): 8025.84
[3]; [14]
  luminescence (CellTiter-Glo): 8938.24
[3]; [15]
  luminescence (CellTiter-Glo): 9390.40
[3]; [16]
  luminescence (CellTiter-Glo): 9228.91
[3]; [17]
  luminescence (CellTiter-Glo): 10886.83
[4]; [8]
  luminescence (CellTiter-Glo): 59686.0
[4]; [9]
  luminescence (CellTiter-Glo): 55451.4
[4]; [10]
  luminescence (CellTiter-Glo): 53088.1
[4]; [11]
  luminescence (CellTiter-Glo): 54122.7
[4]; [12]
  luminescence (CellTiter-Glo): 53424.9
[4]; [13]
  luminescence (CellTiter-Glo): 51898.4
[4]; [14]
  luminescence (CellTiter-Glo): 50938.7
[4]; [15]
  luminescence (CellTiter-Glo): 51419.9
[4]; [16]
  luminescence (CellTiter-Glo): 17553.4
[4]; [17]
  luminescence (CellTiter-Glo): 49251.8
[5]; [8]
  luminescence (CellTiter-Glo): 51241.07
[5]; [9]
  luminescence (CellTiter-Glo): 27898.48
[5]; [10]
  luminescence (CellTiter-Glo): 29488.62
[5]; [11]
  luminescence (CellTiter-Glo): 35637.34
[5]; [12]
  luminescence (CellTiter-Glo): 30743.57
[5]; [13]
  luminescence (CellTiter-Glo): 31548.03
[5]; [14]
  luminescence (CellTiter-Glo): 32832.47
[5]; [15]
  luminescence (CellTiter-Glo): 28815.56
[5]; [16]
  luminescence (CellTiter-Glo): 7366.12
[5]; [17]
  luminescence (CellTiter-Glo): 26941.18
[6]; [8]
  luminescence (CellTiter-Glo): 59686.00
[6]; [9]
  luminescence (CellTiter-Glo): 55451.36
[6]; [10]
  luminescence (CellTiter-Glo): 53088.09
[6]; [11]
  luminescence (CellTiter-Glo): 54122.68
[6]; [12]
  luminescence (CellTiter-Glo): 53424.93
[6]; [13]
  luminescence (CellTiter-Glo): 51898.43
[6]; [14]
  luminescence (CellTiter-Glo): 50938.68
[6]; [15]
  luminescence (CellTiter-Glo): 51419.90
[6]; [16]
  luminescence (CellTiter-Glo): 17553.45
[6]; [17]
  luminescence (CellTiter-Glo): 49251.78

## CC(C)C[C@H](NC(=O)[C@H](Cc1ccccc1)NC(=O)c1cnccn1)B(O)O [Velcade]
[7]
  sensitization of Jeko cells containing the mutant CARD11 to ibrutinib treatment: sensitized
